# Laboratory results reported in US12583852B2, “Heterocycle derivative” (JW PHARMACEUTICAL CORPORATION, priority 2018, dated 2026).
# Tested on: human dermal papilla cells
# Experiment: Promotion of proliferation of human dermal papilla cells (CellTiter-Glo Luminescent cell viability assay)
# Type: cell-based
# Conditions: human dermal papilla cells (ScienCell, 2499); drug 0 to 30 μM; 48 hours; CellTiter-Glo luminescence; compared to DMSO-treated control group
# Method: The effect of promoting cell proliferation by the drug was analyzed using human dermal papilla cells (ScienCell, 2499). Human dermal papilla cells cultured using Mesenchymal Stem Cell Medium (ScienCell, 7501) medium were seeded at a density of 3×10^3 cells/well and in a volume of 100 μl in a 96-well plate, incubated overnight at 37° C. and 5% CO2, treated with the drug at different concentrations ranging from 0 to 30 μM in a volume of 100 μL, and incubated at 37° C. and 5% CO2 for 48 hours. CellTiter-Glo Luminescent cell viability assay was performed according to the manufacturer's protocol (Promega, G7573) to detect cell proliferation. Luminescence was measured using an Envision 2102 multilabeled reader (PerkinElmer) equipment, and the cell proliferation rate was analyzed by the activity of the drug-treated group compared to the DMSO-treated group (control group), which is a solvent of the drug.
row,Compound,Maximum DP cell proliferation (%)
1,"Cc1c(Nc2nc3[nH]nc(N)c3cc2F)cccc1N(C)C [Compound 33, N6-(3-(dimethylamino)-2-methylphenyl)-5-fluoro-1H-pyrazolo[3,4-b]pyridine-3,6-diamine]",6.3
2,"Nc1n[nH]c2nc(Nc3cccc4ncccc34)c(F)cc12 [Compound 60, 5-fluoro-N6-(quinolin-5-yl)-1H-pyrazolo[3,4-b]pyridine-3,6-diamine]",6.1
3,"Cc1cccc(Nc2nc3[nH]nc(N)c3cc2F)c1C [Compound 12, N6-(2,3-dimethylphenyl)-5-fluoro-1H-pyrazolo[3,4-b]pyridine-3,6-diamine]",5.4
4,"CC1(C)CCc2c(Nc3nc4[nH]nc(N)c4cc3F)cccc21 [Compound 51, N6-(1,1-dimethyl-2,3-dihydro-1H-inden-4-yl)-5-fluoro-1H-pyrazolo[3,4-b]pyridine-3,6-diamine]",8.7
5,"Cc1c(Nc2cccc3c2CCC3)nc2[nH]nc(N)c2c1C [Compound 58, N6-(2,3-dihydro-1H-inden-4-yl)-4,5-dimethyl-1H-pyrazolo[3,4-b]pyridine-3,6-diamine]",13
6,"O/N=N\c1n[nH]c2nc(Nc3cccc4c3CCC4)c(F)cc12 [Example 122, (Z)-N-(2,3-dihydro-1H-inden-4-yl)-5-fluoro-3-(hydroxydiazenyl)-1H-pyrazolo[3,4-b]pyridin-6-amine]",5.3
7,"Nc1n[nH]c2nc(Nc3cccc4c3CCC4)ccc12 [Compound 4, N6-(2,3-dihydro-1H-inden-4-yl)-1H-pyrazolo[3,4-b]pyridine-3,6-diamine]",4
